Test results: US20120135995A1, “FUNGICIDAL DIPHENYL-SUBSTITUTED PYRIDAZINES” (E.I. Dupont de Nemours and Company, priority 2009, published 2012)

Key:
Type in all cases: in vivo
Botrytis cinerea = assay: Test A: tomato seedlings sprayed, next day inoculated with Botrytis cinerea (tomato Botrytis), visual disease rating; settings: sprayed day before inoculation; for Test A rating (disease control) / pest or weed control at 200 ppm: 200 ppm test suspension; for pest or weed control at 200 ppm / pest or weed control at 40 ppm: Botrytis cinerea; for pest or weed control at 40 ppm: 40 ppm test suspension (*)
Text: (§1) General protocol for preparing test suspensions for Tests A-F: the test compounds were first dissolved in acetone in an amount equal to 3% of the final volume and then suspended at the desired concentration (in ppm) in acetone and purified water (50/50 mix) containing 250 ppm of the surfactant Trem® 014 (polyhydric alcohol esters). The resulting test suspensions were then used in Tests A-F. Spraying a 200 ppm test suspension to the point of run-off on the test plants was the equivalent of a rate of 500 g/ha. An asterisk “*” next to the rating value indicates a 40 ppm test suspension.
(§2) The test suspension was sprayed to the point of run-off on tomato seedlings. The following day the seedlings were inoculated with a spore suspension of Botrytis cinerea (the causal agent of tomato Botrytis) and incubated in saturated atmosphere at 20° C. for 48 h, and then moved to a growth chamber at 24° C. for 3 days, after which time visual disease ratings were made.
(§3) Results for Tests A-F are given in Table A. In the Table, a rating of 100 indicates 100% disease control and a rating of 0 indicates no disease control (relative to the controls). A dash (-) indicates no test results. All results are for 200 ppm except where followed by “*”, which indicates 40 ppm.

Septoria tritici = assay: Test D: wheat seedlings sprayed, next day inoculated with Septoria tritici (wheat leaf blotch), visual disease rating; settings: sprayed day before inoculation; for Test D rating (disease control) / pest or weed control at 200 ppm: 200 ppm test suspension; for pest or weed control at 200 ppm / pest or weed control at 40 ppm: Zymoseptoria tritici; for pest or weed control at 40 ppm: 40 ppm test suspension (*)
Text: as §1
as §2, with “wheat” for “tomato”, “Septoria tritici” for “Botrytis cinerea”, “wheat leaf blotch)” for “tomato Botrytis)”, “24°” for “20°”, “20°” for “24°”, “19” for “3”
as §3

Septoria nodorum = assay: Test C: wheat seedlings sprayed, next day inoculated with Septoria nodorum (wheat glume blotch), visual disease rating; settings: sprayed day before inoculation; for Test C rating (disease control) / pest or weed control at 200 ppm: 200 ppm test suspension; for pest or weed control at 200 ppm / pest or weed control at 40 ppm: Parastagonospora nodorum; for pest or weed control at 40 ppm: 40 ppm test suspension (*)
Text: as §1
(§4) The test suspension was sprayed to the point of run-off on wheat seedlings. The following day the seedlings were inoculated with a spore suspension of Septoria nodorum (the causal agent of wheat glume blotch) and incubated in a saturated atmosphere at 24° C. for 48 h, and then moved to a growth chamber at 20° C. for 6 days, after which time visual disease ratings were made.
as §3

Alternaria solani = assay: Test B: tomato seedlings sprayed, next day inoculated with Alternaria solani (tomato early blight), visual disease rating; settings: sprayed day before inoculation; for Test B rating (disease control) / pest or weed control at 200 ppm: 200 ppm test suspension; for pest or weed control at 200 ppm / pest or weed control at 40 ppm: Alternaria solani; for pest or weed control at 40 ppm: 40 ppm test suspension (*)
Text: as §1
The test suspension was sprayed to the point of run-off on tomato seedlings. The following day the seedlings were inoculated with a spore suspension of Alternaria solani (the causal agent of tomato early blight) and incubated in a saturated atmosphere at 27° C. for 48 h, and then moved to a growth chamber at 20° C. for 5 days, after which time visual disease ratings were made.
as §3

[1] = test system: Puccinia recondita f. sp. tritici; assay: Test E2: wheat seedlings sprayed, next day inoculated with Puccinia recondita f. sp. tritici (wheat leaf rust), visual disease rating; settings: sprayed day before inoculation; for Test E2 rating (disease control) / pest or weed control at 200 ppm: 200 ppm test suspension; for pest or weed control at 200 ppm / pest or weed control at 40 ppm: Puccinia recondita; for pest or weed control at 40 ppm: 40 ppm test suspension (*)
Text: as §1
as §4, with “Puccinia recondita f. sp. tritici” for “Septoria nodorum”, “leaf rust)” for “glume blotch)”, “20°” for “24°”, “24” for “48”, “7” for “6”
as §3

Erysiphe graminis = assay: Test F: wheat seedlings sprayed, next day inoculated with Erysiphe graminis (wheat powdery mildew), visual disease rating; settings: sprayed day before inoculation; for Test F rating (disease control) / pest or weed control at 200 ppm: 200 ppm test suspension; for pest or weed control at 200 ppm / pest or weed control at 40 ppm: Blumeria graminis; for pest or weed control at 40 ppm: 40 ppm test suspension (*)
Text: as §1
The test suspension was sprayed to the point of run-off on wheat seedlings. The following day the seedlings were inoculated with a spore dust of Erysiphe graminis, (the causal agent of wheat powdery mildew) and incubated in a growth chamber at 20° C. for 8 days, after which time visual disease ratings were made.
as §3

Row | SMILES | Test A rating (disease control) (Botrytis cinerea) [%] | Test D rating (disease control) (Septoria tritici) [%] | Test C rating (disease control) (Septoria nodorum) [%] | Test B rating (disease control) (Alternaria solani) [%] | Test E2 rating (disease control) [1] [%] | Test F rating (disease control) (Erysiphe graminis) [%] | pest or weed control at 200 ppm (Botrytis cinerea) [%] | pest or weed control at 200 ppm (Septoria tritici) [%] | pest or weed control at 200 ppm (Septoria nodorum) [%] | pest or weed control at 200 ppm (Alternaria solani) [%] | pest or weed control at 200 ppm [1] [%] | pest or weed control at 200 ppm (Erysiphe graminis) [%] | pest or weed control at 40 ppm (Botrytis cinerea) [%] | pest or weed control at 40 ppm (Septoria tritici) [%] | pest or weed control at 40 ppm (Septoria nodorum) [%] | pest or weed control at 40 ppm (Alternaria solani) [%] | pest or weed control at 40 ppm [1] [%] | pest or weed control at 40 ppm (Erysiphe graminis) [%]
1 | COc1cc(OC)cc(-c2c(Cl)nnc(C)c2-c2ccc(Cl)cc2)c1 [Compound 1] | 0 | 0 | 0 | 0 | 0 | 0 | – | – | – | – | – | – | – | – | – | – | – | –
2 | COc1ccc(-c2c(C)nnc(Cl)c2-c2cc(OC)cc(OC)c2)cc1 [Compound 2] | 95 | 62 | 0 | 58 | 74 | 26 | – | – | – | – | – | – | – | – | – | – | – | –
3 | COc1cc(OC)cc(-c2c(Cl)nnc(C)c2-c2ccc(F)cc2F)c1 [Compound 3] | 91 | 97 | 0 | 31 | 97 | 79 | – | – | – | – | – | – | – | – | – | – | – | –
4 | COc1cc(OC)cc(-c2c(Cl)nnc(C)c2-c2c(F)cccc2F)c1 [Compound 4, 3-chloro-4-(3,5-dimethoxyphenyl)-6-methyl-5-(2,6-difluorophenyl)pyridazine] | – | – | – | – | – | – | 95 | 98 | 0 | 97 | 100 | 95 | – | – | – | – | – | –
5 | COc1cc(OC)cc(-c2cnnc(C)c2-c2c(F)cc(F)cc2F)c1 [Compound 6, 5-(3,5-dimethoxyphenyl)-3-methyl-4-(2,4,6-trifluorophenyl)pyridazine] | – | – | – | – | – | – | 97 | 93 | 96 | 100 | 100 | 100 | – | – | – | – | – | –
6 | COc1cc(OC)cc(-c2cnnc(CCl)c2-c2c(F)cc(F)cc2F)c1 [Compound 7, 3-(chloromethyl)-5-(3,5-dimethoxyphenyl)-4-(2,4,6-trifluorophenyl)-pyridazine] | – | – | – | – | – | – | 91 | 96 | 94 | 26 | 98 | 99 | – | – | – | – | – | –
7 | COc1cc(OC)cc(-c2c(C)nnc(Cl)c2-c2c(F)cc(F)cc2F)c1 [Compound 8, 3-chloro-5-(3,5-dimethoxyphenyl)-6-methyl-4-(2,4,6-trifluorophenyl)-pyridazine] | – | – | – | – | – | – | – | – | – | – | – | – | 100 | 99 | 100 | 100 | 100 | 99
8 | COc1cc(OC)cc(-c2c(C)nnc(C)c2-c2c(F)cc(F)cc2F)c1 [Compound 9, 4-(3,5-dimethoxyphenyl)-3,6-dimethyl-5-(2,4,6-trifluorophenyl)pyridazine] | – | – | – | – | – | – | – | – | – | – | – | – | 100 | 100 | 100 | 99 | 100 | 100
9 | COc1cc(OC)cc(-c2c(C)nnc(Cl)c2-c2c(F)cc(OC)cc2F)c1 [Compound 10, 3-chloro-4-(2,6-difluoro-4-methoxyphenyl)-5-(3,5-dimethoxyphenyl)-6-methylpyridazine] | – | – | – | – | – | – | – | – | – | – | – | – | 100 | 99 | 98 | 100 | 100 | 99
10 | COc1cc(OC)cc(-c2c(C)nnc(C)c2-c2c(F)cc(OC)cc2F)c1 [Compound 11, 4-(2,6-difluoro-4-methoxyphenyl)-5-(3,5-dimethoxyphenyl)-3,6-dimethylpyridazine] | – | – | – | – | – | – | – | – | – | – | – | – | 100 | 100 | 99 | 100 | 100 | 100
